Laboratory results from patent publication US6361998B1, “Efficient culture of stem cells for the production of hemoglobin” (Hemosol Inc., priority 1999, dated 2002).

What was measured:
CD34^+ enriched cells [1] = test: Expansion and differentiation of CD34+ enriched cells with SA added to EPSFM+LDL; assay type: cell-based, human
Protocol: CD34^+ enriched cells were isolated and cultured as described in Example 1. Succinylacetone (SA), a heme synthesis inhibitor, was added to EPSFM+LDL at concentrations of 25 to 250 uM at the initiation of culture. Results are depicted in Table 4 and FIGS. 4 to 6. The addition of 50 uM SA to EPSFM+LDL increased cell expansion 8-fold when compared to controls without SA (FIG. 4).

CD34^+ enriched cells [2] = test: Addition of SA and hemin to EPSFM+LDL culture of CD34+ enriched cells, Hb content; assay type: cell-based, human; details: at culture termination; SA 25 uM; hemin (if any) 25 uM at initiation of culture
Protocol: CD34^+ enriched cells were isolated and cultured in EPSFM+LDL as described in Example 1. In some samples, SA was added to EPSFM+LDL to a final concentration of 25 uM. In some instances, hemin was added to the SA containing cultures to a final hemin concentration of 25 uM. Hemin was added to some SA containing cultures at the initiation of culture and to others after 15 days of culture. The addition of SA, an inhibitor of heme synthesis, to EPSFM+LDL increased the fold expansion of cells obtained but reduced the percentage of GlyA^+ cells and the Hb content of these cells (Table 10). The low hemoglobin content was ameliorated by the addition of hemin to EPSFM+LDL+SA at the initiation of culture. However, as the percentage of GlyA^+ cells was decreased in this instance, the total amount of Hb per culture is similar to that observed with culture in EPSFM+LDL alone. The addition of hemin after 15 days of culture, instead of at culture initiation, further increased the fold expansion without reducing the percentage of GlyA^+ cells. Unexpectedly, the amount of hemoglobin per cell increased to approximately that obtained with EPSFM+LDL.

[3] = tested on: CD34^+ enriched cells from human umbilical cord blood LDMNC; test: Expansion and differentiation of CD34+ enriched cells in serum-free suspension culture; assay type: cell-based; details: hemin added to defined culture medium (25 uM, FIG. 3)
Protocol: CD34^+ cells were enriched from human umbilical cord blood LDMNC by lineage depletion of cells expressing CD3, CD14, CD16, CD19, CD24, CD56, CD66b and glycophorin A (GlyA) to enrich lin^− cells. The viability of CD34^+ cells pre- and post-enrichment was determined by trypan-blue dye exclusion and cells were characterized for CD34 and CD45 co-expression by standard flow cytometry methods (see Table 2, FIG. 1).
CD34^+ cells were cultured at an initial seeding density of 1-2×10^4 cells/ml in EPSFM+LDL with the composition described in Table 1B. […]
At the end of 30 days in culture cells were fully differentiated erythroid cells with 57% of the cells staining positively with benzidine and 85% of the cells expressing the erythroid-specific membrane glycoprotein glycophorin A (GlyA). […] The amount of hemoglobin per cell was determined to be 5.2 pg using Western blot analysis. […]
CD34^+ enriched cells were cultured for 7 to 11 days, as described in Example 1. […] Fewer than 2% of the cells expressed CD34, and hematopoietic progenitors were present at a frequency of 21 BFU-E, 33 CFU-E and 25 CFU-GM per 1×10^5 cells as detected in methylcellulose colony forming assay. […] Field strength, capacitance, and pulse width were optimized to achieve an average transfection efficiency of approximately 20% as measured at 24 hours post-electroporation.

BaF3 cells [4] = test: Cytokine-dependency growth of BaF3 cells transfected with human EpoR constructs; assay type: cell-based, murine; details: for growth of BaF3 transfectants: no exogenous IL-3
Protocol: The functionality of the EpoR(t439; R154C) was tested and compared to the wild-type EpoR (wtEpoR) and EpoR(t439) using the BaF3 cell line. The cDNAs encoding these three different EpoRs were subcloned into the pcDNA3.1 expression vector, which provides high-level constitutive expression of proteins in mammalian cells and also contains the neomycin gene for the selection of stable transfectant with G418. The vector constructs were electroporated into BaF3 cells and stable transfectants were isolated in the presence of 600 ug/ml G418. BaF3 transfectants were maintained in RPMI-1640 with 10% FBS and 5% WEHI conditioned medium (a source of murine IL-3), except during the cytokine-dependency studies when cells were maintained in RPMI-1640 plus 10% FBS, along with the indicated cytokines. Growth of the different EpoR transfectants in the presence of either murine IL-3 or two different doses of Epo was compared to that of the parental (non-transfected) BaF3 cells (FIG. 7). […] All three EpoR constructs encode functional receptors that allow expansion of the BaF3 cells in the presence of Epo without exogenous IL-3.

BaF3 cells [5] = details: cited from earlier work

Molecule: CC(=O)CC(=O)CCC(=O)O [SA, Succinylacetone]
- Total fold expansion (n = 3) (CD34^+ enriched cells [1]; 25 uM SA added to EPSFM + LDL): 6.36 × 10^6
- Total fold expansion (n = 3) (CD34^+ enriched cells [1]; 50 uM SA added to EPSFM + LDL): 2.89 × 10^7
- increase in cell expansion compared to controls without SA (CD34^+ enriched cells [1]; 50 uM SA in EPSFM+LDL): 8 fold
- suppression of BZ staining and GlyA expression (CD34^+ enriched cells [1]; 250 uM SA): Maximum suppression
- Total fold expansion (n = 3) (CD34^+ enriched cells [1]; 250 uM SA added to EPSFM + LDL): 6.77 × 10^6
- percentages of BZ+ and GlyA+ cells after SA removal (CD34^+ enriched cells [1]; SA removed after at least 20 days of culture, by the following passage): increased significantly
- erythroid differentiation (percentages of BZ+ and GlyA+ cells) (CD34^+ enriched cells [1]; increasing amounts of SA (25 to 250 uM)): reduced erythroid differentiation
- % GlyA positive cells (CD34^+ enriched cells [2]): 74%
- Hb per GlyA^+ cell (CD34^+ enriched cells [2]): 0.95 pg/cell
- Total Hb per culture (CD34^+ enriched cells [2]): 0.03 g
- Total number of GlyA^+ cells (CD34^+ enriched cells [2]): 2.9 × 10^10
- Total number of cells (CD34^+ enriched cells [2]): 3.9 × 10^10

Molecule: hemin
- effect of hemin addition on Hb content, number of GlyA cells and BZ positive cells [3]: did not substantially increase

B1: EpoR: full length wild-type human erythropoietin receptor (protein)
chain: APPPNLPDPKFESKAALLAARGPEELLCFTERLEDLVCFWEEAASAGVGPGNYSFSYQLEDEPWKLCRLHQAPTARGAVRFWCSLPTADTSSFVPLELRVTAASGAPRYHRVIHINEVVLLDAPVGLVARLADESGHVVLRWLPPPETPMTSHIRYEVDVSAGNGAGSVQRVEILEGRTECVLSNLRGRTRYTFAVRARMAEPSFGGFWSAWSEPVSLLTPSDLDPLILTLSLILVVILVLLTVLALLSHRRALKQKIWPGIPSPESEFEGLFTTHKGNFQLWLYQNDGCLWWSPCTPFTEDPPASLEVLSERCWGTMQAVEPGTDDEGPLLEPVGSEHAQDTYLVLDKWLLPRNPPSEDLPGPGGSVDIVAMDEGSEASSCSSALASKPSPEGASAASFEYTILDPSSQLLRPWTLCPELPPTPPHLKYLYLVVSDSGISTDYSSGDSQGAQGGLSDGPYSNPYENSLIPAAEPLPPSYVACS
- growth of BaF3 transfectants (BaF3 cells [4]; 0.02 U/ml Epo): did not grow
- growth of BaF3 transfectants (BaF3 cells [4]; 2 U/ml Epo): grew in the presence of 2 U/ml Epo alone

B2: truncated EpoR: murine EpoR with C-terminal 42 amino acids replaced with Ala-Leu (Yoshimura 1990) (protein, listed as Homo sapiens)
chain: MDHLGASLWPQVGSLCLLLAGAAWAPPPNLPDPKFESKAALLAARGPEELLCFTERLEDLVCFWEEAASAGVGPGNYSFSYQLEDEPWKLCRLHQAPTARGAVRFWCSLPTADTSSFVPLELRVTAASGAPRYHRVIHINEVVLLDAPVGLVARLADESGHVVLRWLPPPETPMTSHIRYEVDVSAGNGAGSVQRVEILEGRTECVLSNLRGRTRYTFAVRARMAEPSFGGFWSAWSEPVSLLTPSDLDPLILTLSLILVVILVLLTVLALLSHRRALKQKIWPGIPSPESEFEGLFTTHKGNFQLWLYQNDGCLWWSPCTPFTEDPPASLEVLSERCWGTMQAVEPGTDDEGPLLEPVGSEHAQDTYLVLDKWLLPRNPPSEDLPGPGGSVDIVAMDEGSEASSCSSALASKPSPEGASAASFEYTILDPSSQLLRP
- responsiveness to Epo relative to the wild-type EpoR (BaF3 cells [5]; murine EpoR, C-terminal 42 amino acids replaced with Ala-Leu, expressed in BaF3 cells): 3-5 times

B3: EpoR(t439): human EpoR truncated at Trp439; hypersensitive to Epo (SEQ ID NOS 4 and 5) (protein, listed as Homo sapiens)
chain: B2 chain
- growth of BaF3 transfectants (BaF3 cells [4]; 0.02 U/ml Epo): grew equally well
- growth of BaF3 transfectants (BaF3 cells [4]; 2 U/ml Epo): grew equally well
- expansion of BaF3 cells (BaF3 cells [4]; absence of exogenous cytokines): did not support cell expansion
- functionality of the EpoR (BaF3 cells [4]; conclusion from BaF3 growth): functional and hypersensitive to Epo

B4: EpoR(R129C): murine EpoR with Arg129 replaced by Cys, constitutively active (literature) (protein, UniProt P14753 25-507, looked up, variant R129C)
Erythropoietin receptor: APSPSLPDPKFESKAALLASRGSEELLCFTQRLEDLVCFWEEAASSGMDFNYSFSYQLEGESRKSCSLHQAPTVRGSVRFWCSLPTADTSSFVPLELQVTEASGSPRYHRIIHINEVVLLDAPAGLLACRAEEGSHVVLRWLPPPGAPMTTHIRYEVDVSAGNRAGGTQRVEVLEGRTECVLSNLRGGTRYTFAVRARMAEPSFSGFWSAWSEPASLLTASDLDPLILTLSLILVLISLLLTVLALLSHRRTLQQKIWPGIPSPESEFEGLFTTHKGNFQLWLLQRDGCLWWSPGSSFPEDPPAHLEVLSEPRWAVTQAGDPGADDEGPLLEPVGSEHAQDTYLVLDKWLLPRTPCSENLSGPGGSVDPVTMDEASETSSCPSDLASKPRPEGTSPSSFEYTILDPSSQLLCPRALPPELPPTPPHLKYLYLVVSDSGISTDYSSGGSQGVHGDSSDGPYSHPYENSLVPDSEPLHPGYVACS
- cytokine dependence of BaF3 cell growth (BaF3 cells [5]; over-expression of murine EpoR(R129C)): permits cytokine-independent growth of BaF3 cells
